# Test system: DU-145 cells
# Type: cell-based, human
smiles,measurement,value
C=C1[C@@H](C)[C@H]2[C@H](Cc3ccccc3)NC(=O)[C@]23[C@H](OC(C)=O)/C=C/[C@@](C)(O)C(=O)[C@@H](C)C/C=C/[C@H]3[C@@H]1O [Cytochalasin-D],Effect on cell migration (in words),did not migrate
same,"Relative Wound Density at 24 Hours, Mean",3.3 ± 0.2
same,"Relative Wound Density at 24 Hours, Percent Relative to Media",4%

# From patent US20110070186A1 (priority 2009, published 2011)
